Holding throughout (format): cell-based
One assay deals with E. coli R3 (ATCC 11775). Description: MIC and MBC, microtiter plate technique. The conditions noted are these: Escherichia coli; for MIC: ATCC11775, 24 h, resazurin; for MBC: ATCC11775, TTC. For orientation: The colour change of resazurin is a common sign of viable cells or microbes.
Another assay concerns E. coli K12 (ATCC 25404). Description: MIC and MBC, microtiter plate technique. As to conditions: Escherichia coli; for MBC: ATCC25404; for MIC: ATCC25404, 24 h.
For another assay, the system named is E. coli R4 (ATCC 39543). Description: MIC and MBC, microtiter plate technique. The conditions noted are these: Escherichia coli; for MBC: ATCC39543; for MIC: ATCC39543, 24 h.
Another assay concerns E. coli R2 (ATCC 39544). The assay is described as follows: MIC and MBC, microtiter plate technique. As to conditions: Escherichia coli; for MBC: ATCC39544; for MIC: ATCC39544, 24 h.
The next assay deals with E. cloacae (ATCC 49141). Description: MIC and MBC, microtiter plate technique. As to conditions: ATCC49141, Enterobacter cloacae; for MIC: 24 h, resazurin; for MBC: TTC.
The subject of assay [1] is A. baumannii (ATCC 17978). The assay is described as follows: MIC and MBC, microtiter plate technique. As to conditions: ATCC17978, Acinetobacter baumannii; for MIC: 24 h, resazurin; for MBC: TTC.
The subject of assay [2] is P. aeruginosa (ATCC 15442). Description: MIC and MBC, microtiter plate technique. The conditions noted are these: ATCC15442, Pseudomonas aeruginosa; for MIC: 24 h, resazurin; for MBC: TTC.
Another assay has as its system S. aureus (ATCC 23235). Description: microbe, parasite or virus in culture. The conditions noted are these: Staphylococcus aureus; for MBC: ATCC23235; for MIC: ATCC23235, 24 h.

Converted amounts (≈) assume the structure as drawn.

On to `COc1ccc(CN(C(C)=O)C(C(=O)NCc2ccccc2)c2ccc(O)c(O)c2)cc1` (centres unmarked) [Compound 5j, N-benzyl-2-(3,4-dihydroxyphenyl)-2-(N-(4-methoxybenzyl)acetamido)acetamide], for which the MIC with E. coli R3 (ATCC 11775) was determined as 1.08 µM (≈ 0.469 µg/mL); in the assay with E. coli K12 (ATCC 25404), 0.26 µM (≈ 0.113 µg/mL); in the assay with E. coli R4 (ATCC 39543), 1.22 µM (≈ 0.53 µg/mL); in the assay with E. coli R2 (ATCC 39544), 0.74 µM (≈ 0.322 µg/mL); in the assay with E. cloacae (ATCC 49141), 0.76 µM (≈ 0.33 µg/mL); in assay [1], 0.8 µM (≈ 0.348 µg/mL). Besides, the figures for the MIC (in assay [2]; in the assay on S. aureus (ATCC 23235)) were 0.77 µM (≈ 0.335 µg/mL) and 0.78 µM (≈ 0.339 µg/mL), respectively. Further, the MBC against E. coli R3 (ATCC 11775) came to 1.28 µM (≈ 0.556 µg/mL); with E. coli K12 (ATCC 25404), 0.82 µM (≈ 0.356 µg/mL); in the assay with E. coli R4 (ATCC 39543), 1.47 µM (≈ 0.639 µg/mL); with E. coli R2 (ATCC 39544) it was 1.19 µM (≈ 0.517 µg/mL); in the assay with E. cloacae (ATCC 49141), 0.81 µM (≈ 0.352 µg/mL); in assay [1], 0.85 µM (≈ 0.369 µg/mL). The values for the MBC (in assay [2]; against S. aureus (ATCC 23235)) were 0.82 µM (≈ 0.356 µg/mL) and 0.74 µM (≈ 0.322 µg/mL), respectively.
For the compound `COc1ccc(CNC(=O)C(c2ccc(O)c(O)c2)N(Cc2ccc(OC)cc2)C(C)=O)cc1` (centres unmarked) [Compound 5k, 2-(3,4-dihydroxyphenyl)-N-(4-methoxybenzyl)-2-(N-(4-methoxybenzyl)acetamido)-acetamide], the MIC against E. coli R3 (ATCC 11775) was 2.13 µM (≈ 0.989 µg/mL); against E. coli K12 (ATCC 25404), 0.58 µM (≈ 0.269 µg/mL); in the assay with E. coli R4 (ATCC 39543) it was 2.55 µM (≈ 1.18 µg/mL); against E. coli R2 (ATCC 39544), 1.27 µM (≈ 0.59 µg/mL); with E. cloacae (ATCC 49141), 1.14 µM (≈ 0.53 µg/mL); in assay [1], 0.93 µM (≈ 0.432 µg/mL). For the same compound, the MIC turned out to be 1.15 µM (≈ 0.534 µg/mL) in assay [2] and 1.18 µM (≈ 0.548 µg/mL) in the assay with S. aureus (ATCC 23235). The MBC turned out to be 2.58 µM (≈ 1.2 µg/mL) in the assay on E. coli R3 (ATCC 11775); 0.79 µM (≈ 0.367 µg/mL) against E. coli K12 (ATCC 25404); 2.82 µM (≈ 1.31 µg/mL) in the assay on E. coli R4 (ATCC 39543); 1.27 µM (≈ 0.59 µg/mL) with E. coli R2 (ATCC 39544); 1.26 µM (≈ 0.585 µg/mL) against E. cloacae (ATCC 49141); 1 µM (≈ 0.465 µg/mL) in assay [1]. Moreover, the MBC turned out to be 1.21 µM (≈ 0.562 µg/mL) in assay [2] and 1.18 µM (≈ 0.548 µg/mL) in the assay on S. aureus (ATCC 23235).
For `COc1ccc(CN(C(C)=O)C(C(=O)NCc2ccc(F)cc2)c2ccc(O)c(O)c2)cc1` (centres unmarked) [Compound 5l, 2-(3,4-dihydroxyphenyl)-N-(4-fluorobenzyl)-2-(N-(4-methoxybenzyl)acetamido)-acetamide], the MIC was determined as 1.64 µM (≈ 0.742 µg/mL) against E. coli R3 (ATCC 11775); 0.64 µM (≈ 0.29 µg/mL) against E. coli K12 (ATCC 25404); 2.61 µM (≈ 1.18 µg/mL) against E. coli R4 (ATCC 39543); 1.17 µM (≈ 0.529 µg/mL) against E. coli R2 (ATCC 39544); 1.23 µM (≈ 0.557 µg/mL) against E. cloacae (ATCC 49141); 1 µM (≈ 0.452 µg/mL) in assay [1]. Further, the results for the MIC (in assay [2]; against S. aureus (ATCC 23235)) were 1.23 µM (≈ 0.557 µg/mL) and 1.27 µM (≈ 0.575 µg/mL), respectively. The MBC against E. coli R3 (ATCC 11775) was found to be 2.62 µM (≈ 1.19 µg/mL); against E. coli K12 (ATCC 25404) it was 0.77 µM (≈ 0.348 µg/mL); with E. coli R4 (ATCC 39543), 2.76 µM (≈ 1.25 µg/mL); in the assay on E. coli R2 (ATCC 39544), 1.21 µM (≈ 0.548 µg/mL); against E. cloacae (ATCC 49141), 1.27 µM (≈ 0.575 µg/mL); in assay [1], 1.03 µM (≈ 0.466 µg/mL). For the same compound, the values for the MBC (in assay [2]; against S. aureus (ATCC 23235)) were 1.26 µM (≈ 0.57 µg/mL) and 1.28 µM (≈ 0.579 µg/mL), respectively.
Turning to `CC(=O)N(C1CCCCC1)C(C(=O)NCc1ccccc1)c1ccc(O)c(O)c1` (centres unmarked) [Compound 5m, N-benzyl-2-(N-cyclohexylacetamido)-2-(3,4-dihydroxyphenyl)acetamide], the MIC turned out to be 1.24 µM (≈ 0.492 µg/mL) in the assay on E. coli R3 (ATCC 11775); 0.35 µM (≈ 0.139 µg/mL) against E. coli K12 (ATCC 25404); 0.59 µM (≈ 0.234 µg/mL) against E. coli R4 (ATCC 39543); 0.94 µM (≈ 0.373 µg/mL) against E. coli R2 (ATCC 39544); 0.81 µM (≈ 0.321 µg/mL) against E. cloacae (ATCC 49141); 0.79 µM (≈ 0.313 µg/mL) in assay [1]. Moreover, the MIC in assay [2] was 0.8 µM (≈ 0.317 µg/mL); against S. aureus (ATCC 23235), 0.75 µM (≈ 0.297 µg/mL). Besides, the MBC against E. coli R3 (ATCC 11775) was 1.38 µM (≈ 0.547 µg/mL); against E. coli K12 (ATCC 25404), 0.85 µM (≈ 0.337 µg/mL); in the assay with E. coli R4 (ATCC 39543), 1.53 µM (≈ 0.607 µg/mL); against E. coli R2 (ATCC 39544), 1.31 µM (≈ 0.519 µg/mL); against E. cloacae (ATCC 49141), 0.89 µM (≈ 0.353 µg/mL); in assay [1], 0.88 µM (≈ 0.349 µg/mL). Further, the MBC in assay [2] amounted to 0.91 µM (≈ 0.361 µg/mL); with S. aureus (ATCC 23235) it was 0.78 µM (≈ 0.309 µg/mL).
For `COc1ccc(CNC(=O)C(c2ccc(O)c(O)c2)N(C(C)=O)C2CCCCC2)cc1` (centres unmarked) [Compound 5n, 2-(N-cyclohexylacetamido)-2-(3,4-dihydroxyphenyl)-N-(4-methoxybenzyl)acetamide], the MIC amounted to 1.1 µM (≈ 0.469 µg/mL) in the assay with E. coli R3 (ATCC 11775); 0.39 µM (≈ 0.166 µg/mL) against E. coli K12 (ATCC 25404); 1.48 µM (≈ 0.631 µg/mL) in the assay with E. coli R4 (ATCC 39543); 0.76 µM (≈ 0.324 µg/mL) against E. coli R2 (ATCC 39544); 0.8 µM (≈ 0.341 µg/mL) against E. cloacae (ATCC 49141); 0.75 µM (≈ 0.32 µg/mL) in assay [1]. For the same compound, the MIC in assay [2] worked out at 0.78 µM (≈ 0.333 µg/mL); against S. aureus (ATCC 23235) it was 0.72 µM (≈ 0.307 µg/mL). Moreover, the MBC was 1.3 µM (≈ 0.554 µg/mL) against E. coli R3 (ATCC 11775); 0.77 µM (≈ 0.328 µg/mL) with E. coli K12 (ATCC 25404); 1.44 µM (≈ 0.614 µg/mL) in the assay on E. coli R4 (ATCC 39543); 1.3 µM (≈ 0.554 µg/mL) against E. coli R2 (ATCC 39544); 0.8 µM (≈ 0.341 µg/mL) in the assay on E. cloacae (ATCC 49141); 0.79 µM (≈ 0.337 µg/mL) in assay [1]. Besides, the MBC came to 0.82 µM (≈ 0.35 µg/mL) in assay [2] and 0.83 µM (≈ 0.354 µg/mL) in the assay on S. aureus (ATCC 23235).

The values are drawn from PMC11855086, “Synthesis, Antimicrobial Activity, and Tyrosinase Inhibition by Multifunctional 3,4-Dihydroxy-Phenyl Peptidomimetics” (International Journal of Molecular Sciences, 2025).
